Laboratory results as given in patent US7244751B2, “Histone deacetylase inhibitors of novel benzamide derivatives with potent differentiation and anti-proliferation activity” (Shenzhen Chipscreen Biosciences Ltd., priority 2003, dated 2007).

Key:
[1] = system: U2OS, human osteocarcinoma; test: Growth inhibition by MTS method, U2OS; assay type: cell-based; details: 48 hours with compound, read-out: GI50 against U2OS
Description: (§1) Growth inhibition tests were carried out by MTS method. Approximately 72 hours before the viability assay, cells were seeded into 96-well plates at 5-10×10^3 cells/well (according to the growth rate of individual cell lines used). 24 hours later, the tested compounds at different concentrations were added, and the cells were cultured for 48 hours, then added 20 μl/well of CellTiter 96 AQueous One Solution Reagent containing tetrazolium compound (Promega) into each well. MTS was subsequently added to the culture medium. After incubation of the plates for 2 hours at about 37° C., the absorbance at 490 nm was recorded by a 96-well plate reader. Cell viability was calculated by Atreatment/Acontrol×100% (A represents the absorbance recorded at 490 nm). […] All of the compounds were dissolved in DMSO and were added to the culture at a 1:1000 dilution to give a final DMSO concentration of ≦0.1%. All samples were assayed in duplicate, and each experiment was repeated at least three times.

[2] = system: SGC-7901, human gastric adenocarcinoma; test: Growth inhibition by MTS method, SGC-7901; assay type: cell-based; details: 48 hours with compound, read-out: GI50 against SGC-7901
Description: as §1

[3] = system: 293, human embryonic kidney; test: Growth inhibition by MTS method, 293; assay type: cell-based; details: 48 hours with compound, read-out: GI50 against 293
Description: as §1

[4] = system: HeLa, human cervical carcinoma; test: Growth inhibition by MTS method, HeLa; assay type: cell-based; details: 48 hours with compound, read-out: GI50 against HeLa
Description: as §1

[5] = system: SK-OV-3, human ovary adenocarcinoma; test: Growth inhibition by MTS method, SK-OV-3; assay type: cell-based; details: 48 hours with compound, read-out: GI50 against SK-OV-3
Description: as §1

[6] = system: MCF-7, human breast adenocarcinoma; test: Growth inhibition by MTS method, MCF-7; assay type: cell-based; details: MCF7, 48 hours with compound, read-out: GI50 against MCF-7
Description: as §1

[7] = system: HDAC (extract from HeLa cells containing HDAC activity); test: HDAC colorimetric activity assay kit (BIOMOL), HeLa cell extract; assay type: biochemical, human
Description: Briefly, the tested compounds at different concentrations were added to 96-well plates, then mixed with extract from HeLa cells containing HDAC activity provided by the manufacturer. HDAC reactions were initiated by adding substrate. 10 minutes later, the reactions were stopped by addition of Color De Lys Developer. Microplates were read in a plate reader at 405 nm. Inhibition of HDAC activity was calculated following the instructions.

[8] = system: Jurkat, human T cell leukemia; test: Growth inhibition by MTS method, Jurkat; assay type: cell-based; details: 48 hours with compound, read-out: GI50 against Jurkat
Description: as §1

[9] = system: LNCaP, human prostate cancer; test: Growth inhibition by MTS method, LNCaP; assay type: cell-based; details: 48 hours with compound, read-out: GI50 against LNCaP
Description: as §1

[10] = system: Raji, human Burkitts Lymphoma; test: Growth inhibition by MTS method, Raji; assay type: cell-based; details: 48 hours with compound, read-out: GI50 against Raji
Description: as §1

[11] = system: SK-N-SH, human neuroblastoma; test: Growth inhibition by MTS method, SK-N-SH; assay type: cell-based; details: 48 hours with compound, read-out: GI50 against SK-N-SH
Description: as §1

28SC, human macrophage = test: Growth inhibition by MTS method, 28SC; assay type: cell-based; details: 48 hours with compound, read-out: GI50 against 28SC
Description: as §1

[12] = system: SMMC-7721, human hepatoma; test: Growth inhibition by MTS method, SMMC-7721; assay type: cell-based; details: SMMC-721, 48 hours with compound, read-out: GI50 against SMMC-721
Description: as §1

H292, human lung cancer = test: Growth inhibition by MTS method, H292; assay type: cell-based; details: NCI-H292, 48 hours with compound, read-out: GI50 against H292
Description: as §1

[13] = system: PANC-1, human pancreatic ductal carcinoma; test: Growth inhibition by MTS method, PANC-1; assay type: cell-based; details: 48 hours with compound, read-out: GI50 against PANC-1
Description: as §1

[14] = system: HL-60, human myloid leukemia; test: Growth inhibition by MTS method, HL-60; assay type: cell-based; details: 48 hours with compound, read-out: GI50 against HL-60
Description: as §1

[15] = system: HepG2, human hepatoblastoma; test: Growth inhibition by MTS method, HepG2; assay type: cell-based; details: 48 hours with compound, read-out: GI50 against HepG2
Description: as §1

[16] = system: DU-145, human prostate cancer; test: Growth inhibition by MTS method, DU-145; assay type: cell-based; details: 48 hours with compound, read-out: GI50 against DU-145
Description: as §1

[17] = system: MDA-MB-231, human breast adenocarcinoma; test: Growth inhibition by MTS method, MDA-MB-231; assay type: cell-based; details: 48 hours with compound, read-out: GI50 against 231
Description: as §1

GI50 [1]	GI50 [2]	GI50 [4]	GI50 [5]	GI50 [6]	GI50 [8]	GI50 [9]	GI50 [10]	GI50 [11]	GI50 [12]	GI50 (H292, human lung cancer)	GI50 [13]	GI50 [14]	GI50 [15]	GI50 [16]	GI50 [17]	SMILES	GI50 [3]	GI50 (28SC, human macrophage)	further results
2500 nM	50 µM	50 µM	50 µM	5 µM	1000 nM	10 µM	2 µM	50 µM	50 µM	50 µM	5 µM	500 nM	3.2 µM	50 µM	7.9 µM	Nc1ccccc1NC(=O)c1ccc(CNc2ccc(F)cc2)cc1 [CS02100019, N-(2-aminophenyl)-4-[N-(4-fluorophenyl)aminomethyl]benzamide]	25 µM	2 µM	IC50 ([7]; HDAC activity, HeLa extract): > 50 µM; % of inhibition of HDAC activity ([7]; concentration 1 μM): 11.3%; % of inhibition of HDAC activity ([7]; concentration 5 μM): 24.9%; % of inhibition of HDAC activity ([7]; concentration 10 μM): 28.4%; % of inhibition of HDAC activity ([7]; concentration 50 μM): 29.8%
2000 nM	50 µM	40 µM	50 µM	5 µM	1500 nM	4 µM	4 µM	50 µM	16 µM	50 µM	6.3 µM	400 nM	4 µM	25 µM	7.9 µM	Nc1cc(F)ccc1NC(=O)c1ccc(CNC(=O)/C=C/c2cccnc2)cc1 [CS02100055, N-(2-amino-4-fluorophenyl)-4-[N-(Pyridin-3-ylacryloyl)aminomethyl]benzamide]	50 µM	5.8 µM	–

SMILES	GI50 [1]	GI50 [2]	GI50 [4]	GI50 [5]	GI50 [6]	GI50 [8]	GI50 [9]	GI50 [10]	GI50 [11]	GI50 [12]	GI50 (H292, human lung cancer)	GI50 [13]	GI50 [14]	GI50 [15]	GI50 [16]	GI50 [17]	GI50 [3]	GI50 (28SC, human macrophage)	further results
Nc1ccccc1NC(=O)c1ccc(CNC(=O)OCc2cccnc2)cc1 [MS-275, N-(2-aminophenyl)-4-[N-(pyridin-3-ylmethoxycarbonyl)aminomethyl]benzamide, reference compound]	1000 nM	50 µM	25 µM	50 µM	6.3 µM	1600 nM	2.5 µM	6.3 µM	50 µM	20 µM	16 µM	5 µM	320 nM	3.2 µM	13 µM	5 µM	16 µM	4 µM	–
